Experimental data: patent US4287206A, “Halogen derivatives of 8-hydroxycarboxylic acids; the processes for their preparation and medicaments in which they are present” (priority 1978, dated 1981)

How the values were obtained:
Assay type in all cases: in vivo
rats [1] = assay: Influence of alpha-methyltyrosine on the stereotypies caused in rats; conditions: 8 mg.kg^-1 intraperitoneal
Procedure: (§1) The tests were carried out on batches of 6 rats for each dose; immediately after the oral or intraperitoneal administration, the animals are placed in individual, transparent plastic 20×10×10 cm boxes provided with a pierced stainless steel lid. The stereotyped movements are rated from 0 to 3, in accordance with the method described by Simon and Chermat (J. Pharmacol. (Paris), 1972, 3, 235-238) every 10 minutes until they disappear in all the animals. The detailed curves are plotted and the surface area of the curve is calculated as described in the above reference.
(b) Influence of alpha-methyltyrosine
At time 0, the animals receive, by intraperitoneal administration, either distilled water or alphamethyltyrosine at a dose of 64 mg.kg^-1; after 150 minutes, they receive, by intraperitoneal administration, the medicament according to the invention, obtained in accordance with Example III, at a dose of 8 mg.kg^-1.
The animals are observed under the conditions described above in the study of the stereotypies in rats.

mice [2] = assay: Anti-reserpine activity in mice (reserpine hypothermia); conditions: comparison of isomers; 32 mg/kg administered orally; schematic grades; listed as α diastereoisomer, 32 mg/kg
Procedure: Anti-reserpine activity in mice
At time 0, the mice receive reserpine (2.5 mg.kg^-1) by intraperitoneal administration.
After 4 hours, when the hypothermia is significant (30 to 31°C.), the substance to be studied is administered intraperitoneally or orally. The rectal temperature is measured, using a probe, carrying a thermoelectric couple, inserted to a constant depth, every 30 minutes for 2 hours.

mice [3] = assay: Motor activity in mice (activity meters with photoelectric cells); conditions: comparison of isomers; 32 mg/kg administered orally; schematic grades; listed as α diastereoisomer, 32 mg/kg
Procedure: The motor activity was determined with the aid of activity meters having photoelectric cells (Boissier and Simon, Arch. int. Pharmacodyn. 1965, 158, 212-221). A minimum of 10 animals was always used per batch.
The mice are placed in the activity meter just after the oral or intraperitoneal administration of the product acccording to the invention, obtained in accordance with Example I. The motor activity is measured as from the introduction into the activity meter up to the 60th minute. The counters are read after 30 minutes, then reset to 0 and read every 10 minutes for 30 minutes.

mice [4] = assay: Anti-apomorphine activity in mice (hypothermia caused by apomorphine); conditions: comparison of isomers; 32 mg/kg administered orally; schematic grades; listed as α diastereoisomer, 32 mg/kg
rats [5] = assay: Influence of pimozide on the stereotypies caused in rats; conditions: 8 mg.kg^-1 intraperitoneal
Procedure: as §1
Research into the antagonistic effects of the stereotypies caused in rats by the medicament according to the invention
(a) Influence of pimozide
At time 0, pimozide (1 mg.kg^-1) or distilled water is administered intraperitoneally; after 30 minutes, all the animals receive, by intraperitoneal administration, the medicament according to the invention, obtained in accordance with Example III (8 mg.kg^-1). The stereotypies are assessed as described above. The surface area of the curve of the stereotypies is calculated.

rats [6] = assay: Study of the stereotypies in rats; conditions: comparison of isomers, 32 mg/kg administered orally, schematic grades, 32 mg/kg
Procedure: Study of the stereotypies in rats
as §1

CC1CC(c2ccc(Cl)cc2)C(c2ccccc2)C(=O)O1 (stereo not drawn) [Example III, Trans-4-(4'-chlorophenyl)-6-methyl-3-phenyl-3,4,5,6-tetrahydropyrone-2, IIIα]
surface area of the curve of the stereotypies, medicament by itself (rats [1]): 63 | surface area of the curve of the stereotypies, medicament + alpha-methyltyrosine (rats [1]; 150 min after alpha-methyltyrosine 64 mg.kg^-1 intraperitoneal): 60.8 | Anti-reserpine action (mice [2]): less significant | Increase in the motor activity in mice (mice [3]): less significant | Anti-apomorphine action (mice [4]): persists | surface area of the curve of the stereotypies, medicament by itself (rats [5]): 63 | surface area of the curve of the stereotypies, medicament administered after pimozide (rats [5]; 30 min after pimozide 1 mg.kg^-1 intraperitoneal): 17 | Stereotypy-forming action on rats (rats [6]; listed as 100% of α): 0 | Stereotypy-forming action on rats (rats [6]; listed as α diastereoisomer): virtually disappears
